The results in this text go back to ChEMBL document CHEMBL1201862, “PubChem BioAssay data set” (2004).

Active and inactive are the calls of the source. A value given as a limit tells only on which side of the number the result lay.

Assay [1] can be described thus: Luminescence Cell-Based Dose Response HTS to Identify Inhibitors of 5'UTR Stem-Loop Driven Prion Protein mRNA Translation in H4 Neuroglioblastoma Cells. [Related pubchem assays: 1827 (Project Summary), 1813 (Primary HTS)]. The format is functional.
Assay [2] in a line: viability of PTEN-deleted HCT116 cells – cell-based, HCT116 PTEN knockout, dose response (AID 1047).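 Also: HCT116 colon tumor cells with PTEN knocked out; cells exposed to compound for 60 hours before readout; potency for loss of cell viability measured by luminescence.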 The format is functional.
For assay [3], the target named is T1, Tyrosine-protein phosphatase non-receptor type 22 (Homo sapiens, UniProt Q9Y2R2).
T1 sequence (Q9Y2R2 whole entry): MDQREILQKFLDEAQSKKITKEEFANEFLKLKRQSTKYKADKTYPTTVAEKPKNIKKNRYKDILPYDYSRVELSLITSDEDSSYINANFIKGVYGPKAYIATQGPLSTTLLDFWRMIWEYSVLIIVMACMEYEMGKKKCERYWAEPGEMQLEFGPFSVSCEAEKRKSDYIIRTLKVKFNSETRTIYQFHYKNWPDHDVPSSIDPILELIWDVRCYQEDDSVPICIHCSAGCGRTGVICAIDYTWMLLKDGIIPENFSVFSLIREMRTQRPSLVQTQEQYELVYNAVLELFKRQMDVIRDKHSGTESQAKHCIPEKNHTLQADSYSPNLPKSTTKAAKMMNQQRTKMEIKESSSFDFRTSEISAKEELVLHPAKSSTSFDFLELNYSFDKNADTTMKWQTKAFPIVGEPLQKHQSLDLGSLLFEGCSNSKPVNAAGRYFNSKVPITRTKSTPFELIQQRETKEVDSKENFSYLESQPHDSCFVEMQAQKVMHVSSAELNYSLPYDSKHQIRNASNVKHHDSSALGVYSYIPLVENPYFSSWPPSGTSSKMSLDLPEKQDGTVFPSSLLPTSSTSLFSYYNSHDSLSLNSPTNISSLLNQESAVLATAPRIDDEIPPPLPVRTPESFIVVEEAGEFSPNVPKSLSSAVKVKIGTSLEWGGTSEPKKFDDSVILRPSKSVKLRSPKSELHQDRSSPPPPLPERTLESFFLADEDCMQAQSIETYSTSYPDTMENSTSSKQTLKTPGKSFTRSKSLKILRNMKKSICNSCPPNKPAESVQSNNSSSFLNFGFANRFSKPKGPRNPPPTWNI
As to the kind of experiment: LYP1 Fluorescent Assay using OMFP substrate for In Vitro dose response studies. [Related pubchem assays (depositor defined):AID1779, AID1784, AID435024].

Assay [4] deals with Dual specificity protein phosphatase 3 (Homo sapiens, UniProt P51452). As to the kind of experiment: VHR1 phosphatase inhibitors, biochemical (AID 1878).
For the next assay, the target named is Troponin, cardiac muscle (Homo sapiens, UniProt P19429+P45379+P63316). The experiment in a line: compounds desensitizing RTF to calcium – biochemical, fluorescence, cardiac regulated thin filaments, triplicate IC50, dose response (AID 504742). Format: protein-complex assay.
Assay [5] concerns the target Mothers against decapentaplegic homolog 3 (Homo sapiens, UniProt P84022). As to the kind of experiment: inhibitors of SMAD-driven TGF-beta signaling – dose response (AID 715). The format is functional.
The nature of assay [6]: NIH-3T3 fibroblast cytotoxicity, dose response, cytotoxicity control, cell-based, fluorescence, Alamar Blue, secondary assay (AID 2327).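 Also: NIH-3T3 mouse fibroblasts cultured with fluconazole at 8 µg/mL.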 The format is functional. (The colour change of resazurin is a common sign of viable cells or microbes.)
In assay [7] the target is T2, Lysine-specific demethylase 4A (Homo sapiens, UniProt O75164).
T2 sequence (O75164 whole entry): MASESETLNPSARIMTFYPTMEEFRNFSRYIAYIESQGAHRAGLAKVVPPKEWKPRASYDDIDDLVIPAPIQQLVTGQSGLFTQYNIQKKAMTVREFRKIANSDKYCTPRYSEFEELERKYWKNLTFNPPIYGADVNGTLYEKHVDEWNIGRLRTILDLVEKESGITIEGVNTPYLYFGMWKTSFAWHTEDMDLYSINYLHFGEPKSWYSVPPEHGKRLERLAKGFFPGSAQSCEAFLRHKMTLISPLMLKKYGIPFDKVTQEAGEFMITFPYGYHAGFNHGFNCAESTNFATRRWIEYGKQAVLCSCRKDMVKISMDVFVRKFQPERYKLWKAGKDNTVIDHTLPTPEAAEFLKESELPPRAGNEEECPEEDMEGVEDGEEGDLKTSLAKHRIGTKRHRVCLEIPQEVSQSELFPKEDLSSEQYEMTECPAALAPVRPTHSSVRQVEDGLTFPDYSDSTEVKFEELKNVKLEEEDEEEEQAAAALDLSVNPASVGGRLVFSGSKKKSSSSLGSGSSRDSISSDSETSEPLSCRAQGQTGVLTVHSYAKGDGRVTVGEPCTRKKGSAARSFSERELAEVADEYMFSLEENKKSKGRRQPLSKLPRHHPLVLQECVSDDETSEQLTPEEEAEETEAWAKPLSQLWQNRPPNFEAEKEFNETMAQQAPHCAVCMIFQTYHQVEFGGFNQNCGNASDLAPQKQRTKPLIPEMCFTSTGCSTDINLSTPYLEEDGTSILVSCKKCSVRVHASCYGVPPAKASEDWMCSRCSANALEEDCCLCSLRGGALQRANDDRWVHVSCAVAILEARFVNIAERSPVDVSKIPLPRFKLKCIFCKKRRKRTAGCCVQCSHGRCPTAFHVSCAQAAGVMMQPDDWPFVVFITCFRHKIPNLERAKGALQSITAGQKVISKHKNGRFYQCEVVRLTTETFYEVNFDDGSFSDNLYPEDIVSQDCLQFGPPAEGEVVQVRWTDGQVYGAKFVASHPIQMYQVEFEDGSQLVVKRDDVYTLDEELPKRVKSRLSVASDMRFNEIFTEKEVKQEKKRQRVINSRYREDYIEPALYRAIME
As to the kind of experiment: inhibition of JMJD2A H3K9me3 demethylation – biochemical, DELFIA europium, cherry-picked samples, selectivity assay for GASC-1 inhibitor project, dose response (AID 488840).

Assay [8] has as its target T3, Tyrosine-protein phosphatase non-receptor type 5 (Homo sapiens, UniProt P54829).
T3 sequence (P54829 whole entry): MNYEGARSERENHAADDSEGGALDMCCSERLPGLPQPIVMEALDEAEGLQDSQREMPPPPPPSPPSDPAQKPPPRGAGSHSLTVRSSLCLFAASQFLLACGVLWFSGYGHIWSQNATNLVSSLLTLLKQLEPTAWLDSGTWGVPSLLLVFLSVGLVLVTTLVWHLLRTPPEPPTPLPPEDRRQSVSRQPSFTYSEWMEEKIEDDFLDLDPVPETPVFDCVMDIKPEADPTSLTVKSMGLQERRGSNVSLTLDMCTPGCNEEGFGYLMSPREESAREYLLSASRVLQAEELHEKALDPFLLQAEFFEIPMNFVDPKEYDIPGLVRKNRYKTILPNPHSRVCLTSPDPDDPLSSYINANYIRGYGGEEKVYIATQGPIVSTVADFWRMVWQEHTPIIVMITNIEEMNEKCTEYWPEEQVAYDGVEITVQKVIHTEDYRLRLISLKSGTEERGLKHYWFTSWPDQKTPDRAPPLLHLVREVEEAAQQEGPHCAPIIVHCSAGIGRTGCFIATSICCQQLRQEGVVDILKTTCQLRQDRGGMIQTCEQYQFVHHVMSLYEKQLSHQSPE
The experiment in a line: PTPN5 enzyme inhibition – biochemical, fluorescence intensity, uHTS hits, confirmation (AID 602372). The format is functional. As to conditions: read-out: IC50_Mean.

Sequence of Dual specificity protein phosphatase 3 (P51452 whole entry): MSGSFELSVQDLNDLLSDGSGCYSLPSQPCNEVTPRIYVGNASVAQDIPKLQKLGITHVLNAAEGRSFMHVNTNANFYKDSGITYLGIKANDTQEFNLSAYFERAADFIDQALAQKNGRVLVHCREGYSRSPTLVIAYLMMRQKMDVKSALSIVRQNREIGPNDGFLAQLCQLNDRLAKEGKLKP
Sequence of Mothers against decapentaplegic homolog 3 (P84022 whole entry): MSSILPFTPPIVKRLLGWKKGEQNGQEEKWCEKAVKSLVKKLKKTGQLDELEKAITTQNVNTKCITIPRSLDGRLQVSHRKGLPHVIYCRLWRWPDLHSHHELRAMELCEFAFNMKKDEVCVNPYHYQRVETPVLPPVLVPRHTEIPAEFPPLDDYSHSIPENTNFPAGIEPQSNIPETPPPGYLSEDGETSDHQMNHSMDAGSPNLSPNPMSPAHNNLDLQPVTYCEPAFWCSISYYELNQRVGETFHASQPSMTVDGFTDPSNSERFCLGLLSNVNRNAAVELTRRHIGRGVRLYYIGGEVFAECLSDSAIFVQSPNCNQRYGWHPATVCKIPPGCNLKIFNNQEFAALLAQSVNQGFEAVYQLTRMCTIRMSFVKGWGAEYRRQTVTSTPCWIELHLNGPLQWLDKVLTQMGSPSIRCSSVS

What is called EC50 is the concentration giving half of the maximal effect. As to `Cc1oc2c(c1C(=O)c1ccccc1)C(=O)C(=O)c1ccccc1-2`, the EC50 in assay [1] is > 120 µM (not active); in [2], 2.64 µM (active). Turning to `O=C(O)COc1ccc(/C=N/NC(=O)c2ccc(-c3csc(Nc4ccc(Cl)cc4)n3)cc2)cc1`, the IC50 is > 99 µM (inactive) in [3]; 1.3 µM (active) in [4]; > 71.5 µM (inactive) on Troponin, cardiac muscle. In the case of `O=C1CCCC2=C1C1(O)C(=O)c3ccccc3C1(O)O2` (centres undefined), in assay [5], the IC50 is 2.73 µM (active).

Take `CCN1/C(=C/c2ccc3cc(C)ccc3[n+]2CC)Sc2cc(C)c(C)cc21`: the EC50 in [6] is 9.66 µM (inconclusive).

In general, AC50 refers to the midpoint of the concentration-response curve, whichever way the signal moves. On to `CSc1ccc(C=NNc2ccc(S(=O)(=O)Nc3ccccc3C(=O)O)cc2[N+](=O)[O-])cc1`, for which the AC50 in assay [7] was 12.4 µM (active). Further, in assay [8], the IC50 is 4.12 µM (active).
